The results in this text go back to US6517742B1, “Sunscreen agents, photoprotective cosmetic compositions containing them and uses thereof” (L'Oreal, priority 1996, dated 2003).

This data set can be described thus: UV absorption spectrum in ethanol (λmax, εmax). On the set-up: UV εmax: unit not given beside the values. The note with it: for UV εmax: at λmax. The class given is physicochemical.

On to “2-(butyl 4′-ylaminobenzoate)-4,6-bis{[1,3,3,3-tetramethyl-1-[(trimethylsilyl)oxy]disiloxanyl]propyl-3-ylamino}-s-triazine [Example 1]”, for which, where the note is “Ethanol”, the “UV λmax” value stood at 300 nm and the “UV εmax” value was 40,800.

Turning to `CC12CCC(C(=Cc3ccc(Nc4nc(NCCC[Si](C)(O[Si](C)(C)C)O[Si](C)(C)C)nc(Nc5ccc(C=C6C(=O)C7(C)CCC6C7(C)C)cc5)n4)cc3)C1=O)C2(C)C` [Example 2, 2,4-bis(4′-ylamnobenzylidenecamphor)-6-{[1,3,3,3-tetramethyl-1-[(trimethylsilyl)oxy]disiloxanyl]propyl-3-ylamino}-s-triazine], for the setting “Ethanol”, the “UV λmax” value is on record as 354 nm and the “UV εmax” value is 66,460.

With `CCCCOC(=O)c1ccc(Nc2nc(NCCC[Si](C)(O[Si](C)(C)C)O[Si](C)(C)C)nc(Nc3ccc(C(=O)OCCCC)cc3)n2)cc1` [Example 3, 2,4-bis(butyl 4′-ylaminobenzoate)-6-{[1,3,3,3-tetramethyl-1-[(trimethylsilyl)oxy]disiloxanyl]propyl-3-ylamino}-s-triazine], under “95% Ethanol”, the “UV λmax” value was found to be 310 nm and the “UV εmax” value was 75,510.

Take `Cc1cc(Nc2nc(NCCC[Si](C)(O[Si](C)(C)C)O[Si](C)(C)C)nc(NCCC[Si](C)(O[Si](C)(C)C)O[Si](C)(C)C)n2)c(O)c(-n2nc3ccccc3n2)c1` [Example 4, 2-(2-benzotriazol-2-yl-4-methyl-6-ylaminophenol)-4,6-bis{[1,3,3,3-tetramethyl-1-[(trimethylsilyl)oxy]disiloxanyl]propyl-3-ylamino}-s-triazine]: for the setting “Ethanol”, the “UV λmax” value came to 324 nm and the “UV εmax” value is 22,000.

In the case of `CC(C)COC(=O)C(=Cc1ccc(Nc2nc(NCCC[Si](C)(O[Si](C)(C)C)O[Si](C)(C)C)nc(Nc3ccc(C=C(C(=O)OCC(C)C)C(=O)OCC(C)C)cc3)n2)cc1)C(=O)OCC(C)C` [Example 5, 2,4-bis(diisobutyl 4′-ylaminobenzalmalonate)-6-{[1,1,1,3-tetramethyl-1-[(trimethylsilyl)oxy]disiloxanyl]propyl-3-ylamino}-s-triazine], where the note is “Ethanol”, the “UV λmax” value is listed as 356.5 nm and the “UV εmax” value was 65,650.
